Assay results as given in article PMC12035797, “Peptidomimetics Activating the Proteasome: A New Perspective for Parkinson’s Treatment” (Journal of Medicinal Chemistry, 2025).
“Also recorded” adds a separate entry of the source. Where a SMILES comes first, the peptide text is derived from it. [ ]: non-standard residue; d: D form. N(4-MeOBn)Gly = COc1ccc(CNCC(=O)O)cc1; NMeR = CN[C@@H](CCCNC(=N)N)C(=O)O; Gly(N-CH2CH2OH) = O=C(O)CNCCO; NMeS = CN[C@@H](CO)C(=O)O; Nlys = NCCCCNCC(=O)O

How the values were obtained:
human 20S proteasome = system: T1, human 20S proteasome; test: h20S proteasome activity probed with FRET-type Dabcyl-EDANS substrate; format: biochemical; conditions: 15 μM Dabcyl-EDANS, 1.0-50 μM modulator
T1 construct: human proteasome isolated from erythrocytes; from tissue; host or cells: human erythrocytes
Excerpt: (§1) To assess the influence of substitutions increasing proteolytic stability on the modulators’ capacity to stimulate chymotrypsin-like, trypsin-like, and caspase-like activity of h20S, we used classic fluorogenic substrates: Suc-LLVY-AMC, Boc-LRR-AMC, and Z-LLE-AMC, respectively. To confirm the observed stimulating capacity, we also conducted assays using a FRET-type reporter peptide with a sequence consisting of 11 residues (Lys(Dabcyl)-[…]EDANS)-Gly).[27] As we checked, the activated 20S hydrolyzed this substrate after more than one residue (Lys, Gly, and Glu), which makes it a probe better reflecting the concerted action of the proteasome’s three peptidases. […] The discrepancy in the level of activation was mainly due to the greater sensitivity of the FRET substrate, as it is not digested, unlike the AMC-based probes, by the latent proteasome, which results in greater differences in fluorescence relative to the controls. […] The ability to affect individual peptidases of the proteasome in different ways is most likely related to the allosteric mechanism of action of the modulators. Binding at a site distant from the catalytic compartment may result in greater diversity in the pathways by which the signal reaches active sites and differential effects of that signal on each peptidase.
(§2) The effect of all synthesized peptidomimetics on the catalytic activity of the proteasome was tested using a human proteasome isolated from erythrocytes. Suc-LLVY-AMC, Boc-LRR-AMC, and Z-LLE-AMC fluorogenic substrates (Bachem, Bubendorf, Switzerland) were used for assessment of the chymotrypsin-, trypsin-, and caspase-like activities, respectively. A homemade FRET-type substrate Dabcyl-EDANS (Lys(Dabcyl)-[…]EDANS)-Gly)[26] was used as an additional probe. Stock solutions of the substrates and tested peptidomimetics were prepared in dimethyl sulfoxide (DMSO), ensuring that the final concentration of DMSO in all samples remained consistent at 2%. The small fluorogenic substrates were used at a final concentration of 100 μM, while Dabcyl-EDANS was prepared at a final concentration of 15 μM. Modulators were tested in concentrations ranging from 1.0 to 50 μM, with compounds containing TAT or 6R sequences tested at lower concentrations ranging from 0.5 to 10 μM. Activity tests were conducted in 96-well plates using 50 mM Tris/HCl, pH 8.0, as an assay buffer. The final concentration of h20S proteasome was adjusted to 0.002 mg/mL (2.8 nM). The fluorescence of released aminomethylcoumarin (AMC) was monitored at 460 nm (λex was 380 nm), while the hydrolysis of Dabcyl-EDANS was detected by measuring emission at 493 nm (λex was set at 335 nm). Fluorescence measurements were taken continuously every 2 min over a 60 min period at 37 °C using a Tecan Infinite M200Pro spectrofluorometer (Tecan Trading AG, Männedorf, Switzerland). All activity assays were performed in at least three independent replicates. The relative activity was calculated in relation to the catalytic activity of the vehicle (DMSO)-treated latent proteasome, which was regarded as 100%. Statistical analysis was performed using the one-way ANOVA followed by Tukey’s post-hoc test. P-value <0.05 was considered statistically significant.

[1] = system: T2, human 20S proteasome, ChT-L peptidase; test: Chymotrypsin-like (ChT-L) activity of h20S probed with Suc-LLVY-AMC; format: biochemical; conditions: 100 μM Suc-LLVY-AMC, whole concentration range
T2 construct: human proteasome isolated from erythrocytes; from tissue; host or cells: human erythrocytes
Experimental: (§3) To assess the influence of substitutions increasing proteolytic stability on the modulators’ capacity to stimulate chymotrypsin-like, trypsin-like, and caspase-like activity of h20S, we used classic fluorogenic substrates: Suc-LLVY-AMC, Boc-LRR-AMC, and Z-LLE-AMC, respectively.
as §2, with “Modulators were tested in concentrations ranging from 1.0 to 50 μM, with compounds containing TAT or 6R sequences tested at lower concentrations ranging from 0.5 to 10 μM.” left out

[2] = Stability of the compounds in human plasma (UHPLC); format: in vitro ADME; conditions: 37 °C, 30 min
Experimental: We tested the proteolytic stability of the obtained peptidomimetics by incubating them with human plasma at 37 °C for 30 min. The process was monitored by UHPLC. Using mass spectrometry, the proteolytic degradation sites were determined (Figure 1B). […] Apparently, the modifications made the modulators considerably less susceptible to the action of proteases present in the plasma.
The modulators were incubated with human serum (Merck, Darmstadt, Germany) at 37 °C for 30 min. The compounds were dissolved in water, and their final concentration was 200 μM. Every 5 min, samples were taken from the incubated solution, and the reaction was stopped with 6% trichloroacetic acid (TCA) added to the sample in a 1:1 (v/v) ratio. Next, the samples were centrifuged for 10 min at 4 °C and 14,000 rpm. The supernatant was subjected to HPLC and MS analyses. The progress of proteolytic degradation of modulators was monitored using a UHPLC chromatograph (Shimadzu, Tokyo, Japan) with a Kinetex analytical column 100 mm × 2.1 mm, 2.6 μm, 100 Å (Phenomenex, Torrance, CA, USA) with UV detection at a wavelength of 223 nm. The degree of degradation was estimated based on the area of the peaks corresponding to the starting materials. In order to identify peptide fragments resulting from degradation, analysis was performed using an Autoflex maX MALDI TOF mass spectrometer (Bruker, […]). All experiments were performed in at least three independent replicates.

[3] = system: T3, human 20S proteasome, C-L peptidase; test: Caspase-like (C-L) activity of h20S probed with Z-LLE-AMC; format: biochemical; conditions: 100 μM Z-LLE-AMC
T3 construct: human proteasome isolated from erythrocytes; from tissue; host or cells: human erythrocytes
Excerpt: as §1, §2

[4] = system: T4, human 20S proteasome, T-L peptidase; test: Trypsin-like (T-L) activity of h20S probed with Boc-LRR-AMC; format: biochemical; conditions: 100 μM Boc-LRR-AMC
T4 construct: human proteasome isolated from erythrocytes; from tissue; host or cells: human erythrocytes
Experimental: as §3
as §2, with “Modulators were tested in concentrations ranging from 1.0 to 50 μM, with compounds containing TAT or 6R sequences tested at lower concentrations ranging from 0.5 to 10 μM.” left out

Row | SMILES | h20S stimulating capacity, Dabcyl-EDANS (human 20S proteasome) | ChT-L stimulating capacity, Suc-LLVY-AMC [1] | proteolytic stability in human plasma [2] | C-L stimulating capacity, Z-LLE-AMC [3] | T-L stimulating capacity, Boc-LRR-AMC [4] | remaining at 0.5 h ([2]; human, plasma, UHPLC, read-out: amount of compound remaining after incubation with human plasma)
1 | C[C@@H](O)[C@H](NC(=O)[C@H](Cc1ccccc1)NC(=O)[C@H](Cc1ccc(O)cc1)NC(=O)CNCCCCN)C(=O)NCC(=O)N[C@@H](CO)C(=O)N[C@@H](CCCCN)C(=O)N[C@@H](CC(=O)O)C(=O)N[C@@H](Cc1c[nH]c2ccccc12)C(=O)N[C@@H](CCCNC(=N)N)C(=O)N(CCO)CC(=O)N[C@@H](Cc1ccc(O)cc1)C(=O)N[C@@H](Cc1ccc(O)cc1)C(=O)N[C@@H](CO)C(=O)O [1c] (H-[Nlys]YFTGSKDWR[Gly(N-CH2CH2OH)]YYS-OH) | less strongly than 1 | lower capacity of activating h20S | most stable | – | – | –
2 | COc1ccc(CN(CC(=O)N[C@@H](CCCNC(=N)N)C(=O)N[C@@H](CCCNC(=N)N)C(=O)N[C@@H](Cc2ccc(O)cc2)C(=O)N[C@@H](Cc2ccc(O)cc2)C(=O)N[C@@H](CO)C(=O)O)C(=O)[C@H](CC(=O)O)NC(=O)[C@H](CCCCN)NC(=O)[C@H](CO)NC(=O)CNC(=O)[C@@H](NC(=O)[C@H](Cc2ccccc2)NC(=O)CN(Cc2ccc(OC)cc2)C(=O)[C@@H](N)CCCCN)[C@@H](C)O)cc1 [2f] (H-K[N(4-MeOBn)Gly]FTGSKD[N(4-MeOBn)Gly]RRYYS-OH) | least effective stimulants | least effective stimulants | most stable | weakest activators | weakest activators | –
3 | C[C@@H](O)[C@H](NC(=O)[C@H](Cc1ccccc1)NC(=O)[C@H](Cc1ccc(O)cc1)NC(=O)[C@@H](N)CCCCN)C(=O)NCC(=O)N[C@@H](CO)C(=O)N[C@@H](CCCCN)C(=O)N[C@@H](CC(=O)O)C(=O)N[C@@H](Cc1c[nH]c2ccccc12)C(=O)N(C)[C@@H](CCCNC(=N)N)C(=O)N(C)[C@@H](CO)C(=O)N[C@@H](Cc1ccc(O)cc1)C(=O)N[C@@H](Cc1ccc(O)cc1)C(=O)N[C@@H](CO)C(=O)O [compound 1d] (H-KYFTGSKDW[NMeR][NMeS]YYS-OH) | reached stimulation levels equal to those of the best activators; also recorded: less strongly than 1 | lower capacity of activating h20S | – | moderate activator | poor activator | < 30%
4 | C[C@@H](O)[C@H](NC(=O)[C@H](Cc1ccccc1)NC(=O)[C@H](Cc1ccc(O)cc1)NC(=O)CNCCCCN)C(=O)NCC(=O)N[C@@H](CO)C(=O)N[C@@H](CCCCN)C(=O)N[C@@H](CC(=O)O)C(=O)N[C@@H](Cc1ccc(O)cc1)C(=O)N[C@@H](CCCNC(=N)N)C(=O)N[C@@H](CCCNC(=N)N)C(=O)N[C@@H](Cc1ccc(O)cc1)C(=O)N[C@@H](Cc1ccc(O)cc1)C(=O)N[C@@H](CO)C(=O)O [compound 2a] (H-[Nlys]YFTGSKDYRRYYS-OH) | most effective h20S stimulators; also recorded: effective activator | most effective h20S stimulators | very stable | – | – | –
